Where only a bound is given, the exact number is not on record here.

Three compounds from patent publication EP1574213B1, “Use of histone deacetylase inhibitors for increasing therapeutic gain in radiotherapy and chemotherapy” (Asan Laboratories Company (Cayman), Limited, priority 2004, dated 2005) can be followed below.

In one test the test system is TGF-beta protein. Put plainly: Immunofluorescence with anti-TGF-beta1, 2 antibodies in irradiated skin. It is filed as in vivo, rats. As to conditions: Day 180. The source says:
The same pathological sections in example 4 were subjected to immunofluorescence with the anti-TGF-beta1, 2 antibodies.

The next test relates to TGF-β3. Nature of the test: TGF-β3 mRNA in irradiated skin (RNase protection assay). Conditions: Vaseline, vehicle, or PB. It is filed as in vivo, rats. Here is the method:
(§1) The timing of the peak appearance of TGF-β1, TGF-β2, and TNF-α expression levels induced by radiation correlated with the beginning of development of radiation-induced damage (FIG. 4). Levels of TGF-β1, TGF-β2, TGF-β3, and TNF-α mRNA were assessed using a multiple cytokine RNase protection assay kit (Riboquant; Pharmingen, San Diego, CA) that contained a template set to allow for the generation of a 32P-labeled antisense RNA probe set that hybridized with the target mRNA for TGF-β1, TGF-β2, TGF-β3, TNF-α, and internal control GAPDH. After hybridization of labeled probe to target RNA, unprotected RNA was digested by a ribonuclease (RNase), and protected RNA fragments were resolved on a 6% polyacrylamide gel and recorded by phosphorimaging (Molecular Dynamics Corp., Sunnyvale, CA). Densitometry was used to quantify the amount of each mRNA species and was normalized to the internal control GAPDH.
The means of skin scores for skin reactions from five rats in each group were calculated. The average levels of cytokine/growth factor mRNA from three skin samples in each group were normalized to the internal control GAPDH and expressed as a ratio to the average level in time-matched control groups. […]

Test [1] deals with TGF-β1, TGF-β2, and TNF-α. Put plainly: Cytokine mRNA in irradiated skin (RNase protection assay, northern blot). It is filed as in vivo, rats. As to conditions: for radiation-induced TGF-β1, TGF-β2, and TNF-α expression: northern blot, irradiated skin. Here is the method: as §1
The means of skin scores for skin reactions from five rats in each group were calculated. The average levels of cytokine/growth factor mRNA from three skin samples in each group were normalized to the internal control GAPDH and expressed as a ratio to the average level in time-matched control groups. The Mann-Whitney test (Stata Statistical Software, College Station, TX) was used to determine statistical significance at the p < 0.05 level for differences in average skin scores and in average mRNA levels, respectively, between treated and control rats.
Total RNA was isolated from frozen skin samples using Trigent (Molecular Research Center Inc., Cincinnati, OH). Total RNA (30 µg) was electrophoresed in a denaturing formaldehyde-agarose gel, blotted onto Hybond N (Amersham, Amersham, UK), and fixed by ultraviolet (UV) irradiation. The membrane was incubated with 32P-labeled probes, as described below, in Rapid-hyb buffer (Amersham). […]

The next test relates to irradiated skin. Nature of the test: Radiation-induced skin reaction after 40Gy, gross skin score and H&E histology. Type of test: in vivo, Sprague Dawley (SD) rats. Conditions: for radiation-induced skin damage including acute dermatitis and desquamation, and late fibrosis, ulceration and necrosis: in words. Here is the method:
Adult female Sprague Dawley (SD) rats were purchased from the animal center of the National Science Council of Taiwan, and weighed 250-300g at the time of irradiation. Each rat was caged alone and allowed chow and water. They were anesthetized with pentobarbital 50mg/kg i.p. before irradiation. The skin over gluteal area was shaved completely and radiation fields with 2-cm diameter were outlined with a marking pen just prior to irradiation. An electron beam with 6MeV energy produced by a linear accelerator was used. The dose was delivered on Day 0 at 4Gy/min up to 40Gy to the prepared area. Each group treated with a histone deacetylase inhibitor was further divided into three subgroups animals (5 each) : one subgroup treated with skin irradiation followed by vehicle, another with skin irradiation followed by a histone deacetylase inhibitor, and the third with skin irradiation only. Then vaseline (negative control), madecassol ointment (positive control), or either vehicles or the 1% phenylbutyrate cream, 1% valproic acid cream, or 0.1% trichostatin A ointment were applied topically to the irradiated skin twice daily from Day 1 to Day 90 after irradiation. The mean dosage for each treatment in the respective groups was 16mg vaseline per cm^2 skin, 16mg madecassol per cm^2 skin, 50mg phenylbutyrate per cm^2 skin, 50mg valproic acid per cm^2 skin, 5mg trichostatin A per cm^2 skin, and an equivalent amount of the vehicle base for the control groups. The gross skin reactions were evaluated in all rats. Acute skin reactions were evaluated and scored every other day until the 90th day after irradiation using the modified skin score system (Abe Y. and Urano M. Fraction size-dependent acute skin reaction of mice after multiple twice-a-day doses. International Journal of Radiation Oncology, Biology, Physics. 18(2):359-64, 1990): 0=normal, 0.5=slight epilation, 1.0=epilation in about 50% of the radiated area, 1.5=epilation in greater than 50% of the area, 2.0=complete epilation, 2.5=complete epilation with definitive edema or dry desquamation in more than 50% of the area, 3.0=moist desquamation in a small area, 3.5=moist desquamation in most of the area.
The skin score increases with more severe skin reaction. On Day 11, the skin reactions in the groups treated with madecassol (positive control) or histone deacetylase inhibitors were less marked than those in the negative or vehicle control groups. By day 21, the epilation in the negative or vehicle groups had progressed to wet desquamation in most areas whereas in the madecassol or histone deacetylase inhibitor groups, it improved, and epithelium healing had begun quickly. […]

The subject of another test is p21Cip1. Put plainly: p21Cip1 protein level in carcinoma cells in vitro. It is filed as cell-based. As to conditions: BNL 1MEA7R.1 and CT-26 carcinoma cells; 4 mM PB.
The next test deals with TNF-α. Nature of the test: Immunohistochemistry of TNF-alpha in irradiated skin. As to conditions: Day 270. Type of test: in vivo, rats. The text has this:
The decrease in late radiation-induced skin damage by topical PB was consistent with the suppression of TNF-α expression (FIG. 6).

In test [2] the test system is CNE2 nasopharyngeal carcinoma cells. Nature of the test: Tumor radiosensitization, colony formation. Conditions: for Radiation enhancement ratio (RER): 60 minutes prior to radiation, at 10% survival. It is filed as cell-based. Here is the method:
Radiation enhancement ratio (RER) is used to calculate the ratio of radiation doses that give the same effect. RER= (Radiation dose without drug treatment at 10% survival fraction)/(Radiation dose with drug treatment at 10% survival fraction).
Valproic acid (0.1 mM or 0.5 mM) was added in CNE2 nasopharyngeal carcinoma cells 60 minutes prior to radiation with radiation dose from 2 to 16 Gy, then washed out. After one week, colonies containing more than 50 cells were counted.

For the next test, the system named is radiation-induced tumors. Put plainly: Late radiation-induced skin tumor formation. As to conditions: 90 weeks, irradiated groups. It is filed as in vivo, rats. The text has this: The decrease of TGF-β expression caused by PB treatment might decrease the incidence of late radiation-induced tumorigenesis. […] The histology of radiation-induced tumors included fibroma, spindle cell sarcoma, basal cell carcinoma, and squamous cell carcinoma.

In test [3] the test system is syngeneic carcinoma cells 1MEA7R.1 and CT-26. Put plainly: Direct antitumor effect on cutaneous tumor growth (both tumors, summary). Type of test: in vivo, BALB/c mice. Conditions: withdrawal after 5 weeks of treatment. On the procedure: The syngeneic carcinoma cells 1MEA7R.1 and CT-26 (purchased from American Type Culture Collection, Manassas, VA) were subcutaneously injected into the flank areas of female BALB/c mice. The tumor was allowed to a maximum dimension of 0.5 cm. […] The tumor size was calculated weekly with a caliper according to the formula ab2/2, where a and b are the larger and smaller diameters (in centimeters), respectively.
(§2) The topical PB formulation was show to have antitumor effects. […] Cutaneous tumors were allowed to grow to the largest dimension 0. 5 cm (FIG. 8D), and PB was topically applied to the tumor surface at 200 mg/mouse twice per day. By 4 weeks, the tumor sizes of 1MEA7R.1 and CT-26 carcinomas in the placebo groups were almost 6- and 1.6-fold larger than those in the PB-treated groups, respectively (FIGS. 8B-8C).
The histological findings on skin specimens from 5 irradiated rats in each group are represented as follows: A, subepithelial swelling. B, dry desquamation in more than 50% of the area. C, wet desquamation in more than 50% of the area. D, atrophy of epidermis in most areas. E, atrophy of skin appendages in most areas. F, increased thickness of epithelium with more cell layers. G, increased collagen deposition, more vessel density, and increased thickness of dermis. H, chronic ulceration, necrosis, bullae formation, and more inflammatory cell infiltrate. […]

The next test has as its system CT-26. Put plainly: Cutaneous tumor growth, topical treatment, CT-26. As to conditions: 4 weeks; 200 mg/mouse twice per day topically. Type of test: in vivo, BALB/c mice. On the procedure: (§3) The syngeneic carcinoma cells 1MEA7R.1 and CT-26 (purchased from American Type Culture Collection, Manassas, VA) were subcutaneously injected into the flank areas of female BALB/c mice. The tumor was allowed to a maximum dimension of 0.5 cm. Topical HDAC inhibitors or vehicle was applied at a dose of 200 mg/mouse to cover the whole tumor surface and surrounding skin twice per day for 4 weeks. The tumor size was calculated weekly with a caliper according to the formula ab2/2, where a and b are the larger and smaller diameters (in centimeters), respectively.
as §2

For a further test, the system named is 1MEA7R.1. Nature of the test: Cutaneous tumor growth, topical treatment, 1MEA7R.1. It is filed as in vivo, BALB/c mice. Conditions: 4 weeks; 200 mg/mouse twice per day topically. Here is the method: as §3, §2
A further test concerns EBV thymidine kinase. Nature of the test: EBV thymidine kinase activity assay. It is filed as cell-based, Epstein-Barr virus (EBV). As to conditions: 1 nM for 48 hours; EBV-positive Daudi cells. On the procedure: For EBV thimidine kinase activity assay, an equal amount of cytosol fraction was incubated with reaction buffer (50mM Tris-HCl pH 7.4, 1mg/ml BSA, 3mM creatine phosphate, 11.2U/ml creatine phosphokinase, 0.1µm [3H-8]-GCV (specific activity 13.5 Ci/mmol), 2.5mM ATP, 2.5mM MgCl2, 10mM NaF, 10mM DTT) at 37°C for 30 mins. The reaction mixtures were added on WhatmanR DE-81 ion exchange chromatography papers, which were then washed with 1.5mM NH4COOH three times to remove unphosphorylated form of [3H-8]-GCV. After air dry, these papers were incubated with liquid scintillation cocktail overnight. The phosphorylation form of [3H-8]-GCV bound on WhatmanR DE-81 ion exchange chromatography paper was measured by LS6500 scintillation counter (Beckman).
The combination of TSA, GCV and radiation produced selectively maximal death in EBV-positive cells but not in EBV-negative cells (FIG. 11B). Daudi cells (EBV+) and HL-60 (EBV-) were treated with ganciclovir (GCV) (10 µg/ml) and /or trichostatin A (TSA) (1 nM) for 48 hours, then radiated with or without 1 Gy radiation (RT). Viable cells were counted 1 week later.

As to `O=C(O)CCCc1ccccc1` [PB, Phenylbutyrate], the “expression of TGF-beta” value in the test on TGF-beta protein is on record as “suppressed effectively”. The “differences in TGF-β3 mRNA levels between irradiated groups” value in the test on TGF-β3 is given as “No significant differences”. Also, in test [1] (Day 28-35 after irradiation), the “mRNA levels of TGF-β1, TGF-β2, and TNF-α” value was “returned to the non-irradiated control levels”. Besides, the “rats showing chronic ulceration, necrosis, bullae formation, and inflammatory cell infiltration” value in the test on irradiated skin (Day 270) is given as “zero of five”. The “radiation-induced skin damage including acute dermatitis and desquamation, and late fibrosis, ulceration and necrosis” value in the test with irradiated skin is reported as “suppressing”. Moreover, the p21Cip1 result in the test with p21Cip1 is “up-regulation”. The TNF-α expression result with TNF-α is listed as “suppression”. In addition, the plating efficiency result in test [2] (versus control) is “the same”. Besides, in the test with radiation-induced tumors, the cumulative tumor incident worked out at 0%. The “time to reach the same size as control or placebo tumors after withdrawal” value in [3] is no more than 2 weeks. The “tumor size in the placebo group relative to the PB-treated group” value with CT-26 is listed as roughly 1.6 fold; with 1MEA7R.1, roughly 6 fold.

Take `CC(/C=C/C(=O)NO)=C\[C@@H](C)C(=O)c1ccc(N(C)C)cc1` [TSA, Trichostatin A]: in test [1], the “radiation-induced TGF-β1, TGF-β2, and TNF-α expression” value is given as “decreased”. In the test on irradiated skin, the “radiation-induced skin damage including acute dermatitis and desquamation, and late fibrosis, ulceration and necrosis” value was “suppressing”. In addition, in the test on EBV thymidine kinase, the “EBV thymidine kinase activity” value is “up-regulated”.

Regarding `CCCC(CCC)C(=O)O` [Valproic acid], the “radiation-induced TGF-β1, TGF-β2, and TNF-α expression” value in [1] was “decreased”. Further, the “radiation-induced skin damage including acute dermatitis and desquamation, and late fibrosis, ulceration and necrosis” value in the test with irradiated skin is “suppressing”. Moreover, the “Radiation enhancement ratio (RER)” value stood at 1.2 in [2] (0.1 mM) and 1.7 in test [2] (0.5 mM).
